Laboratory results: patent publication US12281299B2, “Control of nitrogen fixation in rhizobia that associate with cereals” (Massachusetts Institute of Technology, priority 2019, dated 2025)

What follows are molecules tested on R. sp. IRBG74 (assay: Genetic part characterization for Rhizobia (promoters, RBSs, terminators, inducible systems; fluorescence reporter, flow cytometry)). Conditions: synthetic RBS strength in R. sp. IRBG74; plasmid pMR-40, IPTG-inducible system, 1 mM IPTG induction.
Format: cell-based, Rhizobium sp.
Source text: Construction and characterization genetic parts for Rhizobia. Genetic part libraries were built on a pBBR1-ori plasmid pMR-1 using Gibson assembly (New England Biolabs, Cat # E2611). The fluorescence proteins, GFPmut3b and mRFP1 were used as reporters. The Anderson promoter library (Anderson, J. et al. BglBricks: A flexible standard for biological part assembly. 4, 1 (2010)) on the BioBricks Registry were utilized for the characterization of constitutive promoters (FIGS. 11A-11C). To characterize inducible promoters, a regulator protein is constitutively expressed by the PlacIq promoter, and GFP expression is driven by a cognate inducible promoter from the opposite direction, facilitating replacement of the reporter with gene of interest (e.g., T7 RNAP and nifA) and transfer of the controller unit across different plasmid backbones for diverse microbes. The following combinations of cognate regulators and inducible promoters were characterized. IPTG inducible LacI-A1lacO1, DAPG inducible PhlF-PPhl, aTc inducible TetR-PTet, 3OC6HSL inducible LuxR-PLux, salicylic acid inducible NahR-PSal, and cuminic acid inducible CymR-PCym systems were optimized for R. sp. IRBG74 (FIG. 14). Opine inducible OccR-Pocc, and nopaline inducible NocR-Pnoc systems were optimized for A. caulinodans (FIGS. 20A-20F and Tables 9 and 10). For RBS characterization, an IPTG-inducible GFP expression plasmid pMR-40 was used and GFP was expressed to the highest levels with 1 mM IPTG (FIGS. 12A-12B). RBS library for GFP was designed using the RBS library calculator at the highest-resolution mode, and the 3′ end of the 16S rRNA sequences were adjusted according to the species (3′-ACCTCCTTC-5′ for R. sp. IRBG74). Terminators for T7 RNAP were characterized by placing a terminator between two fluorescence reporters expressed from a single T7 wild-type promoter located upstream of the first fluorescence protein GFP. The expression of the two fluorescence proteins is enabled by the controller strain MR18 encoding the IPTG-inducible T7 RNAP system by 1 mM IPTG (FIGS. 13A-13B). The terminator strength (Ts) was determined by normalizing fluorescence levels of a terminator construct by a reference construct pMR-66 where a 40 bp spacer was placed between the reporters. All genetic parts for Rhizobia were characterized as follows.

Row | Molecule | Strength (GFP, au) [au]
1 | RBST-13 (DNA TAACAATTTCACACATCTAGAGCTAATCTTCGCGTACTAAAAAGGCAAGTAATG; chemistry not fully specified) | 895.5
2 | RB5r1 (DNA ATTTCACACATCTAGAGCTAATCATCTCGTACTAAAGAGGAGAAATTAACCATG; chemistry not fully specified) | 8242
3 | RBST-27 (DNA TAACAATTTCACACATCTAGAGCTAATCATCGCGTACTAACTACGCAAGTAATG; chemistry not fully specified) | 12.2
4 | RBST-18 (DNA TAACAATTTCACACATCTAGAGCTAATCATCGCGTACTCAATAGGCCAGTAATG; chemistry not fully specified) | 305.5
5 | RBST-14 (DNA TAACAATTTCACACATCTAGAGCTAATCTTCGCGTACTAAGAAGGCAAGTAATG; chemistry not fully specified) | 632.5
6 | RBST-23 (DNA TAACAATTTCACACATCTAGAGCTAATCTTCGCGTACTAATTAGGCAAGTAATG; chemistry not fully specified) | 84.4
7 | RB5r3 (DNA ATTTCACACATCTAGAATTAAAGAGGAGAAATTAACCATG; chemistry not fully specified) | 6238.5
8 | RBST-10 (DNA TAACAATTTCACACATCTAGAGCTAATCATCGCGTACTAATGAGGCAAGTAATG; chemistry not fully specified) | 1590
9 | RBST-30 (DNA TAACAATTTCACACATCTAGAGCTAATCTTCGCGTACTAACAACGCAAGTAATG; chemistry not fully specified) | 2.95
10 | RB5r7 (DNA TAACAATTTCACACATCTAGAGCTAATCTTCGCGTACTAAAGAGGCAAGTAATG; chemistry not fully specified) | 2418.5
11 | RBST-24 (DNA TAACAATTTCACACATCTAGAGCTAATCTTCTCGTACTAACAAGGCAAGTAATG; chemistry not fully specified) | 75.15
12 | RBST-31 (DNA TAACAATTTCACACATCTAGAGCTAATCTTCTCGTACTCATGACGCAAGTAATG; chemistry not fully specified) | 1.45
13 | RBST-20 (DNA TAACAATTTCACACATCTAGAGCTAATCATCTCGTACTAACGAGGCAAGTAATG; chemistry not fully specified) | 248
14 | RB5r9 (DNA TAACAATTTCACACATCTAGAGCTAATCATCTCGTACTAATGAGGCAAGTAATG; chemistry not fully specified) | 1593.5
15 | RBST-19 (DNA TAACAATTTCACACATCTAGAGCTAATCATCGCGTACTAAGTAGGCAAGTAATG; chemistry not fully specified) | 242
16 | RB5r4 (DNA TAACAATTTCACACATCTAGAGCTAATCATCTCGTACTAAAGAGGCAAGTAATG; chemistry not fully specified) | 3618
17 | RBST-15 (DNA TAACAATTTCACACATCTAGAGCTAATCATCTCGTACTAAATAGGCAAGTAATG; chemistry not fully specified) | 648.5
18 | RBST-29 (DNA TAACAATTTCACACATCTAGAGCTAATCTTCGCGTACTAAAAACGCAAGTAATG; chemistry not fully specified) | 4.6
19 | RBST-11 (DNA TAACAATTTCACACATCTAGAGCTAATCATCGCGTACTCACGAGGCAAGTAATG; chemistry not fully specified) | 1554
20 | RBST-25 (DNA TAACAATTTCACACATCTAGAGCTAATCATCTCGTACTCAATAGGCAAGTAATG; chemistry not fully specified) | 45.45

The molecules below were run on A. caulinodans ORS571 (assay: not given). Conditions: sensor controlling NifA(L94Q/D95Q)/RpoN expression in A. caulinodans.
Format: cell-based, Azorhizobium caulinodans
Description: Nitrogenase assays (A. caulinodans and P. stutzeri). Cultures were initiated by inoculating a single colony into 0.2 mL of TY medium supplemented with appropriate antibiotics in 96-deepwell plates and grown overnight at 37° C. and 30° C. for A. caulinodans and P. stutzeri, respectively, 900 rpm in a Multitron incubator. 5 μl of overnight cultures was diluted into 500 μl of UMS medium with 30 mM lactate and 10 mM NH4Cl and appropriate antibiotics in 96-deepwell and incubated for 24 h at 37° C. and 30° C. for A. caulinodans and P. stutzeri, respectively, 900 rpm in a Multitron incubator. Cultures were diluted to an OD600 of 0.4 into 2 mL of UMS medium plus 30 mM lactate supplemented with appropriate antibiotics and an inducer (if necessary) in 10 mL glass vials with PTFE-silicone septa screw caps. Headspace in the vials was replaced with 99% argon plus 1% oxygen gas using a vacuum manifold. Acetylene was injected to 10% (vol/vol) into each culture vial to begin the reaction. The acetylene reduction was carried out for 20 h at 30° C. with shaking at 250 rpm, followed by quenching via the addition of 0.5 mL of 4 M NaOH to each vial.
Ethylene quantification. Ethylene production was analyzed by gas chromatography using an Agilent 7890A GC system (Agilent Technologies, Inc., CA USA) equipped with a PAL headspace autosampler and flame ionization detector as follows. An aliquot of 0.5 mL headspace preincubated to 35° C. for 30 s was injected and separated for 4 min on a GS-CarbonPLOT column (0.32 mm×30 m, 3 microns; Agilent) at 60° C. and a He flow rate of 1.8 mL/min. Detection occurred in a FID heated to 300° C. with a gas flow of 35 mL/min H2 and 400 mL/min air. Acetylene and ethylene were detected at 3.0 min and 3.7 min after injection, respectively. Ethylene production was quantified by integrating the 3.7 min peak using Agilent GC/MSD ChemStation Software.

Row | Molecule | dynamic range of nitrogenase activity [fold] | nitrogenase activity higher than the wild-type [%]
21 | O=C([O-])c1ccccc1O.[Na+] [salicylic acid, Salicylic acid sodium salt] | 1000 | 
22 | CC(NC(CCCNC(=N)N)C(=O)O)C(=O)O (stereo not shown) [octopine, Octopine] |  | 40
23 | N=C(N)NCCCC(NC(CCC(=O)O)C(=O)O)C(=O)O (stereo not shown) [nopaline, Nopaline] | 412 | 

These molecules were tested on P. protegens Pf-5 (assay: Genetic part characterization for P. protegens (promoters, RBSs, terminators, inducible systems; fluorescence reporter, flow cytometry)). Conditions: P. protegens Pf-5, pRO1600 plasmid.
Format: cell-based, Pseudomonas protegens
Source text: Construction and characterization genetic parts for P. protegens. Genetic part libraries were built on a pRO1600-ori plasmid pMR-2 using Gibson assembly (New England Biolabs, Cat # E2611). The fluorescence proteins, GFPmut3b and mRFP1 were used as reporters. The Anderson promoter library on the BioBricks Registry were utilized for the characterization of constitutive promoters (FIGS. 11A-11C). The following combinations of cognate regulators and inducible promoters were characterized. IPTG inducible LacI-Ptac, DAPG inducible PhlF-PPhl, aTc inducible TetR-PTet, 3OC6HSL inducible LuxR-PLux, arabinose inducible AraC-PBAD, cuminic acid inducible CymR-PCym, and naringenin inducible FdeR-PFde were optimized (FIGS. 15A-15C). […] RBS library for GFP was designed using the RBS library calculator at the highest-resolution mode, and the 3′ end of the 16S rRNA sequences were adjusted according to the species (3′-ACCTCCTTA-5′ for P. protegens Pf-5). Terminators for T7 RNAP were characterized by placing a terminator between two fluorescence reporters expressed from a single T7 wild-type promoter located upstream of the first fluorescence protein GFP. The expression of the two fluorescence proteins is enabled by an IPTG-inducible T7 RNAP expression system of the controller strain MR7 (FIGS. 13A-13B). All genetic parts for P. protegens Pf-5 were characterized as follows.

Row | Molecule | function of inducible system
24 | CC(=O)c1c(O)cc(O)c(C(C)=O)c1O [DAPG, 2,4-Diacetylphloroglucinol, reference compound] | functional

Each molecule was assayed on R. sp. IRBG74 (assay: Nitrogenase assays (Rhizobia strains), acetylene reduction). Conditions: DAPG-inducible T7 RNAP driving v3.2 refactored pathway in R. sp. IRBG74.
Format: cell-based, Rhizobium sp.
Description: Nitrogenase assays (Rhizobia strains). […] 5 μl of overnight cultures was diluted into 500 μl of UMS medium with 30 mM succinate, 10 mM sucrose, and 10 mM NH4Cl and appropriate antibiotics in 96-deepwell and incubated for 24 h at 30° C., 900 rpm in a Multitron incubator. Cultures were diluted to an OD600 of 0.4 into 2 mL of UMS medium plus 30 mM succinate and 10 mM sucrose supplemented with appropriate antibiotics, 1.43 mM serine and an inducer (if necessary) in 10 mL glass vials with PTFE-silicone septa screw caps. Headspace in the vials was replaced with 99% argon and 1% oxygen gas using a vacuum manifold. Acetylene was injected to 10% (vol/vol) into each culture vial to begin the reaction. […]
Ethylene quantification. Ethylene production was analyzed by gas chromatography using an Agilent 7890A GC system (Agilent Technologies, Inc., CA USA) equipped with a PAL headspace autosampler and flame ionization detector as follows. […] Acetylene and ethylene were detected at 3.0 min and 3.7 min after injection, respectively. Ethylene production was quantified by integrating the 3.7 min peak using Agilent GC/MSD ChemStation Software.
The bacteria were grown in appropriate media, including antibiotics, and then evaluated for nitrogenase activity using an acetylene reduction assay (see Methods and Materials Section). […]

Row | Molecule | induction of nitrogenase activity [fold]
25 | CC(=O)c1c(O)cc(O)c(C(C)=O)c1O [DAPG, 2,4-Diacetylphloroglucinol, reference compound] | 9
